The test system of one series is rats. The experiment in a line: Toxicologic profile in rats (clinical pathology, necropsy, histopathology).
Series [1] deals with mouse whole blood (male), red blood cells. Kind of series: In vitro hemolysis test, mouse blood. As to conditions: 15 min at 37° C.; for % Hemolysis: Mouse Blood; for interpretation of hemolysis to Red Blood Cells: mouse whole unclotted blood, concentrations tested. On the procedure: (§1) APAP and GBP alone or in combination were evaluated in the in vitro hemolysis test using four biologic matrices (mouse, rat, dog and human whole unclotted blood) to determine the hemolytic potential for each on red blood cells.

The subject of series [2] is beagle dog whole blood (male), red blood cells. The experiment in a line: In vitro hemolysis test, dog blood. As to conditions: 15 min at 37° C.; for % Hemolysis: Dog Blood; for interpretation of hemolysis to Red Blood Cells: dog whole unclotted blood, concentrations tested. How it is done:
as §1

For series [3], the system named is human (pooled) whole blood, red blood cells. Kind of series: In vitro hemolysis test, human blood. As to conditions: 15 min at 37° C.; for % Hemolysis: Human Blood; for interpretation of hemolysis to Red Blood Cells: human whole unclotted blood, concentrations tested. How it is done: as §1
The subject of series [4] is rat whole blood (male), red blood cells. The experiment in a line: In vitro hemolysis test, rat blood. As to conditions: 15 min at 37° C.; for % Hemolysis: Rat Blood; for interpretation of hemolysis to Red Blood Cells: rat whole unclotted blood, concentrations tested. How it is done:
as §1

A short description of series [5]: Pharmacokinetics in rats after 15 min IV infusion. As to conditions: for AUC / Cmax: male, rat, plasma, iv. How it is done: Formulation compositions were prepared by dissolving GBP and/or APAP as indicated in Table 5 and the pH was adjusted to 5.5 using HCl or NaOH.
Blood samples were collected over a 24 h period at which time the rats were exsanguinated and blood collected for Clinical Pathology (Chemistry, Hematology and Coagulation) evaluation. Finally, all animals were necropsied (all exterior and interior cavities and organs were examined) and the site of infusion in the jugular vein, lung, liver and kidney underwent histopathologic evaluation.

Series [6] can be described thus: Stability of gabapentin in presence of different stabilizers and solvents. It counts as physicochemical. As to conditions: GBP 9 mg/mL in acetate buffer. On the procedure: GBP containing formulations were prepared by dissolving GBP to a concentration of 9 mg/mL in acetate buffer. A first set of samples were tested for assay and impurities after the initial preparation of formulation. Another set of samples were steam sterilized at 121° C. for 15 min and were tested for assay and impurity levels.

The next series deals with motor control. The experiment in a line: Mouse RotoRod/Acelerorod test. As to conditions: mice, 15 minute IV infusion, 10 mg Acetaminophen/mL, 8 mg Gabapentin/mL; 1, 2, 4, 6 h. On the procedure: Mouse tail flick test was conducted to evaluate test somatic pain and mouse rotorod/acelorod test evaluated behavioral changes, specifically somnolence or dizziness
In each case a positive control was administered as described below.
Male ICR mice were trained on a RotoRod/Acelerod at a continuous accelerating speed from 4 to 30 rpm/min during a time period of 4 minutes for at least 3 times on day 0. Vehicle or test article at a single dose is administered by intravenous infusion over 15 minutes starting 30 minutes before the test period starts and chlorpromazine (30 mg/kg, PO) was administered by oral gavage 60 minutes before the start of the test period. At 1, 2, 4, and 6 hours after the start of the test the mice are placed on the accelerating rotorod (increasing from 4 to 30 rpm/min during a 4 min period) and the time (seconds) the mouse remained on the rotorod was recorded. One-way ANOVA followed by Dunnett's test is applied for comparison between vehicle control and test article groups. P<0.05 is considered significant.
A baseline was measured before administration of the test agents and at 1, 2, 4 and 6 h post the start of the study. The effect of the compounds was evaluated in the standard RotoRod/Acelerorod test.
On the technique in general: The rotarod test checks motor coordination on a turning rod.

The conditions of series [7]: Koshy et al; cited from earlier work.

Take “1-(aminomethyl) cyclohexane acetic acid [Gabapentin]”: the “Clinical Pathology (Clinical Chemistry, Hematology or Coagulation Parameters)” value in the series on rats (24 h after 15 minute IV infusion) is on record as “did not alter the Clinical Pathology”. For the same molecule, in the series with rats (infusion site, lung, liver, kidney), the “histopathology of tissues compared to vehicle control” value is recorded as “no changes in the histopathology”. The “% Hemolysis” value in series [1] (GBP 2 mg/mL), in series [1] (GBP 4 mg/mL), in series [1] (GBP 8 mg/mL), in series [2] (GBP 2 mg/mL), in series [2] (GBP 4 mg/mL) and in series [2] (GBP 8 mg/mL) was 0% each time. For the same molecule, the “% Hemolysis” value in series [3] (GBP 2 mg/mL) amounted to 0%; in series [3] (GBP 4 mg/mL), 2%; in series [3] (GBP 8 mg/mL) it was 0%; in [4] (GBP 2 mg/mL), 0%; in series [4] (GBP 4 mg/mL), 0%; in series [4] (GBP 8 mg/mL) it was 0%. The “interpretation of hemolysis to Red Blood Cells” value in [1], in series [2], in series [3] and in series [4] was “not considered to be hemolytic” each time. For the same molecule, the “Gabapentin PK AUC” value in series [5] (15 min IV infusion) is 37,663 ng · h/mL. In [5] (15 min IV infusion), the “Gabapentin PK Cmax” value was 20,138 ng/mL. Moreover, the “PK profile of GBP” value in [5] (in the presence of APAP) was “no change”. For the same molecule, the “order of stability of GBP in solvents and stabilizers” value in series [6] is “PVP>Glycine>Lysine>Propylene Glycol>Sorbitol>PEG400>Glycerol>Mannitol>Sodium Oleate>β-cyclodextrin>Deoxychloic Acid>CMC>L-Glutamic Acid”. Also, the “stability of GBP with stabilizer” value in series [6] (PVP at 10 mg/mL) is “more stable”. Besides, in the series with motor control, the “decrease in motor control compared to the vehicle control” value is reported as “no statistically significant decrease in motor control”.

One may read the AUC as the area under the concentration-time curve, a measure of exposure. Usually Cmax stands for the maximum level reached in the sampled fluid or tissue. For the molecule `CC(=O)Nc1ccc(O)cc1` [Acetaminophen], the “% Hemolysis” value in [1] (APAP 5 mg/mL) is listed as 4%; in series [1] (APAP 10 mg/mL), 4%; in series [2] (APAP 5 mg/mL), 0%; in series [2] (APAP 10 mg/mL), 5%; in series [3] (APAP 5 mg/mL) it was 0%; in series [3] (APAP 10 mg/mL), 0%. Also, the “% Hemolysis” value in series [4] (APAP 5 mg/mL) and in [4] (APAP 10 mg/mL) was 0% in each case. Besides, the “interpretation of hemolysis to Red Blood Cells” value in series [1], in series [2], in series [3] and in series [4] was “not considered to be hemolytic” in each case. Further, in series [7], the “pH range of minimum hydrolysis of APAP” value is recorded as 5-7. Also, the exposure (AUC) was 7280 ng·h/mL in series [5] (Acetaminophen PK AUC, 15 min IV infusion) and 5830 to 9110 ng·h/mL in series [5] (Bioequivalent Range (80-125%) AUC, 15 min IV infusion, 80-125% of single-drug value). Also, the maximum concentration (Cmax) in series [5] (Acetaminophen PK Cmax, 15 min IV infusion) is 10100 ng/mL; in series [5] (Bioequivalent Range (80-125%) Cmax, 15 min IV infusion, 80-125% of single-drug value), 8110 to 12700 ng/mL. Also, the “decrease in motor control compared to the vehicle control” value in the series on motor control is given as “no statistically significant decrease in motor control”.

Values taken from patent publication US10052296B2, “Formulations for treating pain” (priority 2016, dated 2018).
